{"source": "patent US12194039B2", "about": "“Methods of treating heart failure by administering omecamtiv mecarbil” (Cytokinetics, Inc., priority 2020, dated 2025)", "key": {"[1]": {"system": "patients with heart failure", "details": "result in words; cited from earlier work"}, "[2]": {"details": "sensitive P-gp substrate digoxin 0.5 mg SD, with OM 50 mg SD"}, "[3]": {"details": "sensitive MATE 1/2K substrate metformin 850 mg SD, with OM 25 mg BID"}, "[4]": {"details": "sensitive CYP3A substrate midazolam 5 mg SD, with OM 25 mg BID"}, "[5]": {"details": "sensitive BCRP substrate rosuvastatin 10 mg SD, with OM 50 mg SD"}}, "note": "Read-outs that look alike come from different tables or passages of the source."}
{"smiles": "C[C@H]1O[C@@H](O[C@H]2[C@@H](O)C[C@H](O[C@H]3[C@@H](O)C[C@H](O[C@H]4CC[C@@]5(C)[C@H](CC[C@@H]6[C@@H]5C[C@@H](O)[C@]5(C)[C@@H](C7=CC(=O)OC7)CC[C@]65O)C4)O[C@@H]3C)O[C@@H]2C)C[C@H](O)[C@@H]1O", "note": "[Digoxin]", "values": [{"measurement": "% Change of co-administered drug Cmax (↑ = increase)", "setting": "[2]", "result": "↑8%"}, {"measurement": "Mean Ratio of co-administered drug AUC (90% CI)", "setting": "[2]", "result": "1.06 (0.99-1.14)"}, {"measurement": "Mean Ratio of co-administered drug Cmax (90% CI)", "setting": "[2]", "result": "1.08 (0.92-1.26)"}]}
{"smiles": "CN(C)C(=N)N=C(N)N", "note": "[Metformin]", "values": [{"measurement": "Mean Ratio of co-administered drug AUC (90% CI)", "setting": "[3]", "result": "0.99 (0.92-1.05)"}, {"measurement": "Mean Ratio of co-administered drug Cmax (90% CI)", "setting": "[3]", "result": "1.10 (1.01-1.21)"}]}
{"smiles": "Cc1ncc2n1-c1ccc(Cl)cc1C(c1ccccc1F)=NC2", "note": "[Midazolam]", "values": [{"measurement": "% Change of co-administered drug AUC (↓ = decrease)", "setting": "[4]", "result": "↓18%"}, {"measurement": "% Change of co-administered drug Cmax (↓ = decrease)", "setting": "[4]", "result": "↓10%"}, {"measurement": "Mean Ratio of co-administered drug AUC (90% CI)", "setting": "[4]", "result": "0.82 (0.71-0.94)"}, {"measurement": "Mean Ratio of co-administered drug Cmax (90% CI)", "setting": "[4]", "result": "0.90 (0.75-1.08)"}]}
{"smiles": "CC(C)c1nc(N(C)S(C)(=O)=O)nc(-c2ccc(F)cc2)c1/C=C/[C@@H](O)C[C@@H](O)CC(=O)O", "note": "[Rosuvastatin]", "values": [{"measurement": "% Change of co-administered drug AUC (↑ = increase)", "setting": "[5]", "result": "↑27%"}, {"measurement": "% Change of co-administered drug Cmax (↑ = increase)", "setting": "[5]", "result": "↑45%"}, {"measurement": "Mean Ratio of co-administered drug AUC (90% CI)", "setting": "[5]", "result": "1.27 (1.14-1.42)"}, {"measurement": "Mean Ratio of co-administered drug Cmax (90% CI)", "setting": "[5]", "result": "1.54 (1.33-1.79)"}]}
{"smiles": "COC(=O)Nc1c(N)nc(-c2nn(Cc3ccccc3F)c3ncc(F)cc23)nc1N", "note": "[vericiguat]", "values": [{"measurement": "Treatment efficacy at higher NT-proBNP concentrations", "setting": "[1]", "result": "declined"}]}
